Measured values from PubChem BioAssay (NCI).
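Protocol summary: plate cells (96-well), add compound at 5 concentrations, incubate 48 h, interpolate endpoints linearly. Abbreviation: GI50, concentration required for 50% inhibition of growth. TGI: total growth inhibition.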

How the values were obtained:
Test in all cases: NCI anticancer screen, dose series, 48 h
HOP-62 NSCLC = test system: HOP-62 NSCLC
K-562 leukemia = test system: K-562 leukemia
HS 578T breast = test system: HS 578T breast
A549 NSCLC = test system: A549 NSCLC
CCRF-CEM leukemia = test system: CCRF-CEM leukemia
A498 renal = test system: A498 renal
LOX IMVI melanoma = test system: LOX IMVI melanoma
DU-145 prostate = test system: DU-145 prostate
RPMI-8226 leukemia = test system: RPMI-8226 leukemia
SK-MEL-5 melanoma = test system: SK-MEL-5 melanoma
EKVX NSCLC = test system: EKVX NSCLC
U251 CNS = test system: U251 CNS
T-47D breast = test system: T-47D breast
SK-MEL-28 melanoma = test system: SK-MEL-28 melanoma
SK-OV-3 ovarian = test system: SK-OV-3 ovarian
MALME-3M melanoma = test system: MALME-3M melanoma
M14 melanoma = test system: M14 melanoma
SF-539 CNS = test system: SF-539 CNS
COLO 205 colon = test system: COLO 205 colon
OVCAR-8 ovarian = test system: OVCAR-8 ovarian
NCI-H522 lung = test system: NCI-H522 lung
OVCAR-3 ovarian = test system: OVCAR-3 ovarian
CAKI-1 renal = test system: CAKI-1 renal
MDA-MB-468 breast = test system: MDA-MB-468 breast
HOP-92 NSCLC = test system: HOP-92 NSCLC
786-0 renal = test system: 786-0 renal
SW-620 colon = test system: SW-620 colon
HL-60(TB) leukemia = test system: HL-60(TB) leukemia
SK-MEL-2 melanoma = test system: SK-MEL-2 melanoma
HCT-15 colon = test system: HCT-15 colon
BT-549 breast = test system: BT-549 breast
MDA-MB-435 = test system: MDA-MB-435
SNB-19 CNS = test system: SNB-19 CNS
IGROV1 ovarian = test system: IGROV1 ovarian
UACC-62 melanoma = test system: UACC-62 melanoma
UACC-257 melanoma = test system: UACC-257 melanoma
SF-268 CNS = test system: SF-268 CNS
NCI-H23 lung = test system: NCI-H23 lung
HCC-2998 colon = test system: HCC-2998 colon
RXF 393 renal = test system: RXF 393 renal
ACHN renal = test system: ACHN renal
PC-3 prostate = test system: PC-3 prostate
MDA-MB-231 breast = test system: MDA-MB-231 breast
SR leukemia = test system: SR leukemia
HCT-116 colon = test system: HCT-116 colon
NCI-H226 lung = test system: NCI-H226 lung
UO-31 renal = test system: UO-31 renal
MCF7 breast = test system: MCF7 breast
HT29 colon = test system: HT29 colon
OVCAR-5 ovarian = test system: OVCAR-5 ovarian
OVCAR-4 ovarian = test system: OVCAR-4 ovarian
KM12 colon = test system: KM12 colon
SNB-75 CNS = test system: SNB-75 CNS
NCI-H460 lung = test system: NCI-H460 lung
NCI/ADR-RES ovarian = test system: NCI/ADR-RES ovarian
SF-295 CNS = test system: SF-295 CNS
TK-10 renal = test system: TK-10 renal
MOLT-4 leukemia = test system: MOLT-4 leukemia
SN12C renal = test system: SN12C renal

CCN1C(=O)N(CC)C2NNC(Sc3c(C(=O)O)c4ccccc4n(CC(C)C)c3=O)=NC21 (stereo not drawn)
GI50 (HOP-62 NSCLC): 5.42 µM | TGI (HOP-62 NSCLC): > 100 µM | GI50 (K-562 leukemia): 2.77 µM | TGI (K-562 leukemia): > 100 µM | GI50 (HS 578T breast): 2.94 µM | TGI (HS 578T breast): 58.8 µM | GI50 (A549 NSCLC): 4.6 µM | TGI (A549 NSCLC): > 100 µM | GI50 (CCRF-CEM leukemia): 3.54 µM | TGI (CCRF-CEM leukemia): > 100 µM | GI50 (A498 renal): > 100 µM | TGI (A498 renal): > 100 µM | GI50 (LOX IMVI melanoma): 4.13 µM | TGI (LOX IMVI melanoma): 20.6 µM | GI50 (DU-145 prostate): 4.49 µM | TGI (DU-145 prostate): > 100 µM | GI50 (RPMI-8226 leukemia): 2.75 µM | TGI (RPMI-8226 leukemia): > 100 µM | GI50 (SK-MEL-5 melanoma): 3.83 µM | TGI (SK-MEL-5 melanoma): 16.4 µM | GI50 (EKVX NSCLC): 3.11 µM | TGI (EKVX NSCLC): > 100 µM | GI50 (U251 CNS): 3.91 µM | TGI (U251 CNS): > 100 µM | GI50 (T-47D breast): > 100 µM | TGI (T-47D breast): > 100 µM | GI50 (SK-MEL-28 melanoma): 6.5 µM | TGI (SK-MEL-28 melanoma): > 100 µM | GI50 (SK-OV-3 ovarian): 6.05 µM | TGI (SK-OV-3 ovarian): > 100 µM | GI50 (MALME-3M melanoma): 5.23 µM | TGI (MALME-3M melanoma): 47.7 µM | GI50 (M14 melanoma): 4 µM | TGI (M14 melanoma): > 100 µM | GI50 (SF-539 CNS): 2.08 µM | TGI (SF-539 CNS): 5.47 µM | GI50 (COLO 205 colon): 2.53 µM | TGI (COLO 205 colon): 6.95 µM | GI50 (OVCAR-8 ovarian): 3.55 µM | TGI (OVCAR-8 ovarian): 30.1 µM | GI50 (NCI-H522 lung): 1.88 µM | TGI (NCI-H522 lung): 5.97 µM | GI50 (OVCAR-3 ovarian): 3.19 µM | TGI (OVCAR-3 ovarian): 22.3 µM | GI50 (CAKI-1 renal): 3.1 µM | TGI (CAKI-1 renal): 23.2 µM | GI50 (MDA-MB-468 breast): 0.442 µM | TGI (MDA-MB-468 breast): 3.91 µM | GI50 (HOP-92 NSCLC): 14.4 µM | TGI (HOP-92 NSCLC): 64.1 µM | GI50 (786-0 renal): 7.45 µM | TGI (786-0 renal): > 100 µM | GI50 (SW-620 colon): 4.05 µM | TGI (SW-620 colon): > 100 µM | GI50 (HL-60(TB) leukemia): 2.37 µM | TGI (HL-60(TB) leukemia): 12.9 µM | GI50 (SK-MEL-2 melanoma): 4.21 µM | TGI (SK-MEL-2 melanoma): > 100 µM | GI50 (HCT-15 colon): 1.89 µM | TGI (HCT-15 colon): 18.8 µM | GI50 (BT-549 breast): 35.7 µM | TGI (BT-549 breast): > 100 µM | GI50 (MDA-MB-435): 0.976 µM | TGI (MDA-MB-435): 4.19 µM | GI50 (SNB-19 CNS): 3.78 µM | TGI (SNB-19 CNS): 65 µM | GI50 (IGROV1 ovarian): 2.54 µM | TGI (IGROV1 ovarian): 19.3 µM | GI50 (UACC-62 melanoma): 2.68 µM | TGI (UACC-62 melanoma): 33.5 µM | GI50 (UACC-257 melanoma): 14.7 µM | TGI (UACC-257 melanoma): > 100 µM | GI50 (SF-268 CNS): 6.46 µM | TGI (SF-268 CNS): > 100 µM | GI50 (NCI-H23 lung): 3.67 µM | TGI (NCI-H23 lung): 21.4 µM | GI50 (HCC-2998 colon): 3.28 µM | TGI (HCC-2998 colon): 16.9 µM | GI50 (RXF 393 renal): 3.17 µM | TGI (RXF 393 renal): 17.1 µM | GI50 (ACHN renal): 4.73 µM | TGI (ACHN renal): 46.2 µM | GI50 (PC-3 prostate): 4.14 µM | TGI (PC-3 prostate): > 100 µM | GI50 (MDA-MB-231 breast): 2.51 µM | TGI (MDA-MB-231 breast): 21.9 µM | GI50 (SR leukemia): 13.2 µM | TGI (SR leukemia): > 100 µM | GI50 (HCT-116 colon): 3.18 µM | TGI (HCT-116 colon): > 100 µM | GI50 (NCI-H226 lung): 3.92 µM | TGI (NCI-H226 lung): 21.1 µM | GI50 (UO-31 renal): 4.11 µM | TGI (UO-31 renal): > 100 µM | GI50 (MCF7 breast): 0.949 µM | TGI (MCF7 breast): 21.5 µM | GI50 (HT29 colon): 2.83 µM | TGI (HT29 colon): 12.5 µM | GI50 (OVCAR-5 ovarian): 4.19 µM | TGI (OVCAR-5 ovarian): 67.1 µM | GI50 (OVCAR-4 ovarian): 15 µM | TGI (OVCAR-4 ovarian): > 100 µM | GI50 (KM12 colon): 2.93 µM | TGI (KM12 colon): > 100 µM | GI50 (SNB-75 CNS): 1.81 µM | TGI (SNB-75 CNS): 9.27 µM | GI50 (NCI-H460 lung): 3.08 µM | TGI (NCI-H460 lung): 12.2 µM | GI50 (NCI/ADR-RES ovarian): 1.99 µM | TGI (NCI/ADR-RES ovarian): 4.89 µM | GI50 (SF-295 CNS): 3.01 µM | TGI (SF-295 CNS): 16.3 µM | GI50 (TK-10 renal): 18.4 µM | TGI (TK-10 renal): > 100 µM | GI50 (MOLT-4 leukemia): 3.66 µM | TGI (MOLT-4 leukemia): > 100 µM | GI50 (SN12C renal): 3.62 µM | TGI (SN12C renal): 34.4 µM
